This passage reports IC50 results from BindingDB's records for doi:10.1021/cb700200w (Novartis, 2008).

Structures are written as SMILES.

One assay addresses T1, Aurora kinase A (Homo sapiens, UniProt O14965).
T1 sequence (O14965 whole entry): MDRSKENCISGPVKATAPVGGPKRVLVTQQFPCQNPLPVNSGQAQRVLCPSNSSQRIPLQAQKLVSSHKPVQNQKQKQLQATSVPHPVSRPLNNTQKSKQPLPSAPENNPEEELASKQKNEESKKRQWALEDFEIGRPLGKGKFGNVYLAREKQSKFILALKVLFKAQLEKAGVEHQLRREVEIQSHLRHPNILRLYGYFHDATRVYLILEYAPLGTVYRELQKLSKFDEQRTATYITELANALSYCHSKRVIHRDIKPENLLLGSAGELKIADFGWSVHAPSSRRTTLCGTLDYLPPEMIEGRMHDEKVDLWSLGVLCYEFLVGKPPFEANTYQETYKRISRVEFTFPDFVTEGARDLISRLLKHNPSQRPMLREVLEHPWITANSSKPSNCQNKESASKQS
The assay can be described thus: Aurora Kinase SPA Assay.
Details: not given
As to the method: The biochemical activity of compounds was determined by incubation with Aurora A and substrates in the presence ATP/[gamma-33P] ATP. After incubation, the reaction was stopped and the phosphorylated substrate was separated from nonincorporated radioactive ATP using SPA beads (Amersham Pharmacia Biotech), counted using TopCount (Packard) to measure substrate-incorporated phosphate.
The compound `Brc1cnc(Nc2cccc3ccccc23)s1` [5-bromo-N-(naphthalen-1-yl)-1,3-thiazol-2-amine] registered an IC50 of 5000 nM. On the same count and under the same terms, the result for `Brc1cnc(Nc2ccccn2)s1` [5-bromo-N-(pyridin-2-yl)-1,3-thiazol-2-amine] reads 2000 nM; that for `Brc1cnc(Nc2cccnc2)s1` [5-bromo-N-(pyridin-3-yl)-1,3-thiazol-2-amine], 3600 nM. On the same count and under the same terms, next, `Brc1cnc(Nc2ccncc2)s1` [5-bromo-N-(pyridin-4-yl)-1,3-thiazol-2-amine]: 7800 nM; `FC(F)(F)c1ccccc1Nc1ncc(Br)s1` [5-bromo-N-[2-(trifluoromethyl)phenyl]-1,3-thiazol-2-amine]: greater than 10000 nM; `CSc1cccc(Nc2ncc(Br)s2)c1` [5-bromo-N-[3-(methylsulfanyl)phenyl]-1,3-thiazol-2-amine]: 500 nM. On the same count and under the same terms, next, `FC(F)(F)c1cccc(Nc2ncc(Br)s2)c1` [5-bromo-N-[3-(trifluoromethyl)phenyl]-1,3-thiazol-2-amine]: 10000 nM. With `N#Cc1cnc(Nc2ccccn2)s1` [ACS Chemical Biology 3180 Compound 63], the IC50 worked out at 2500 nM.

For the compound `CC(=O)Nc1ncc(Br)s1` [N-(5-bromo-1,3-thiazol-2-yl)acetamide], the IC50 was greater than 10000 nM. `O=C(Nc1ncc(Br)s1)c1ccccc1` [N-(5-bromo-1,3-thiazol-2-yl)benzamide] yielded an IC50 of 5500 nM.

For `FC(F)(F)c1cc(Nc2ncc(Br)s2)cc(C(F)(F)F)c1` [N-[3,5-bis(trifluoromethyl)phenyl]-5-bromo-1,3-thiazol-2-amine], the IC50 was greater than 10000 nM. `CCOC(=O)c1cccc(Nc2ncc(Br)s2)c1` [ethyl 3-[(5-bromo-1,3-thiazol-2-yl)amino]benzoate]: the IC50 stood at 2250 nM.

Still in this assay, the particulars now being: pH 7; 22 °C.
On to `O=C(O)c1ccc(Nc2ncc(Br)s2)cc1` [4-[(5-bromo-1,3-thiazol-2-yl)amino]benzoic acid], for which the IC50 was 79 nM.

Compound `Fc1ccc(Nc2ncc(Br)s2)cc1` [5-bromo-N-(4-fluorophenyl)-1,3-thiazol-2-amine] registered an IC50 of 400 nM. The compound `Brc1cnc(Nc2ccc(Oc3ccncc3)cc2)s1` [5-bromo-N-[4-(pyridin-4-yloxy)phenyl]-1,3-thiazol-2-amine] gave a concentration for half-maximal inhibition (IC50) of 900 nM. In the case of `FC(F)(F)Oc1ccc(Nc2ncc(Br)s2)cc1` [5-bromo-N-[4-(trifluoromethoxy)phenyl]-1,3-thiazol-2-amine], it took 17200 nM to reach half-maximal inhibition (IC50).

As to `FC(F)(F)c1ccc(Nc2ncc(Br)s2)cc1` [5-bromo-N-[4-(trifluoromethyl)phenyl]-1,3-thiazol-2-amine], it took 2400 nM to reach half-maximal inhibition (IC50).

`Brc1cnc(Nc2ccccc2)s1` [5-bromo-N-phenyl-1,3-thiazol-2-amine] yielded a half-inhibitory concentration (IC50) of 1100 nM. As to `Fc1ccc(Nc2ncc(Cl)s2)cc1` [5-chloro-N-(4-fluorophenyl)-1,3-thiazol-2-amine], the IC50 amounted to 1100 nM. `Fc1ccc(Nc2nccs2)cc1` [N-(4-fluorophenyl)-1,3-thiazol-2-amine]: the IC50 is greater than 10000 nM.

Turning to `Fc1ccc(Nc2ncc(I)s2)cc1` [N-(4-fluorophenyl)-5-iodo-1,3-thiazol-2-amine], the IC50 stood at 500 nM.

As to `CC(=O)Nc1ccc(Nc2ncc(Br)s2)cc1` [N-{4-[(5-bromo-1,3-thiazol-2-yl)amino]phenyl}acetamide], the IC50 was determined as 360 nM. `O=C(Nc1ccc(Nc2ncc(Br)s2)cc1)c1ccccc1` [N-{4-[(5-bromo-1,3-thiazol-2-yl)amino]phenyl}benzamide] displayed an IC50 of 9200 nM. For the compound `CCOC(=O)c1ccc(Nc2ncc(Br)s2)cc1` [ethyl 4-[(5-bromo-1,3-thiazol-2-yl)amino]benzoate], half-maximal inhibition (IC50) was put at 5700 nM.

The target in another assay is Cyclin-dependent kinase/G2/mitotic-specific cyclin- 1 (Homo sapiens, UniProt P06493). The assay can be described thus: Z-LYTE Enzymatic Kinase Assay.
Sequence of Cyclin-dependent kinase/G2/mitotic-specific cyclin- 1 (P06493 whole entry): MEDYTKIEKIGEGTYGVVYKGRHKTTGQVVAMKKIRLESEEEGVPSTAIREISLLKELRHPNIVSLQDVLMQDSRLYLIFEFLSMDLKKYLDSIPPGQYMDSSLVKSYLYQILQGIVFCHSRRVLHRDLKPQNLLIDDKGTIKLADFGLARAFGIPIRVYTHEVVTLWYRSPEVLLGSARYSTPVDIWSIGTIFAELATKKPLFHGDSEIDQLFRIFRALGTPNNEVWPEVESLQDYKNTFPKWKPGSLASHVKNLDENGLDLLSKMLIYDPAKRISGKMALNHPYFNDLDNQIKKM
Sequence of Cyclin-dependent kinase/G2/mitotic-specific cyclin- 1 (P14635 whole entry, further chain): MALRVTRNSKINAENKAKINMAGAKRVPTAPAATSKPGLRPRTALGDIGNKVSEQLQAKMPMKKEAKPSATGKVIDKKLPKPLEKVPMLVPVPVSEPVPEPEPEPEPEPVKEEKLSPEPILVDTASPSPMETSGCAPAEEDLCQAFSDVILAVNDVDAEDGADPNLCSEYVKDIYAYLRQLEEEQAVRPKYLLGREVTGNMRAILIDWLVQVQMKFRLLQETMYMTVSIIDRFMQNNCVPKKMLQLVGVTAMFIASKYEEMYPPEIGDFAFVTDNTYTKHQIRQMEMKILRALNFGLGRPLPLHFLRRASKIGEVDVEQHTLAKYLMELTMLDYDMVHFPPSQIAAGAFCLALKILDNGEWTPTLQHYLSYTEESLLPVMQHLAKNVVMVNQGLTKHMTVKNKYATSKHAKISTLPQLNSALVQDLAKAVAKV
Details: not given
On the procedure: Enzyme activity was assayed using Z-LYTE Enzymatic Kinase Assay format (Invitrogen Corp., Carlsbad, CA) in the SelectScreen Kinase Profiling Service (Invitrogen Discovery Sciences, Madison, WI).
In turn, `CNC(=O)c1ccc(Nc2ncc(Br)s2)cc1` [4-[(5-bromo-1,3-thiazol-2-yl)amino]-N-methylbenzamide] yielded an IC50 of 4.27 µM. For the compound `O=C(O)c1ccc(Nc2ncc(Br)s2)cc1` [4-[(5-bromo-1,3-thiazol-2-yl)amino]benzoic acid], the IC50 was greater than 10 µM. The same measure, in the same setting: the result for `Fc1ccc(Nc2ncc(Br)s2)cc1` [5-bromo-N-(4-fluorophenyl)-1,3-thiazol-2-amine] reads greater than 10 µM.
